Results published in ChEMBL document CHEMBL1136396, “Discovery of 3-amino-4-chlorophenyl P1 as a novel and potent benzamidine mimic via solid-phase synthesis of an isoxazoline library” (Bioorg Med Chem Lett, 2003).

What was measured:
Coagulation factor X [1] = target: T1, Coagulation factor X (Homo sapiens, UniProt P00742); assay: Binding affinity against the Factor Xa (FXa)
Coagulation factor X [2] = target: T1, Coagulation factor X; assay: Binding affinity against the coagulation factor X
Coagulation factor X [3] = target: T1, Coagulation factor X; assay: Binding affinity against Coagulation factor X

T1 sequence (P00742 41-179 limits assumed): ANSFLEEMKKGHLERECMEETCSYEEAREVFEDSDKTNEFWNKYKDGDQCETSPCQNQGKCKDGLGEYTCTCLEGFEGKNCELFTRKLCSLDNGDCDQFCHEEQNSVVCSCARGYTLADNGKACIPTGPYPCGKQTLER
T1 sequence (P00742 235-488 limits assumed): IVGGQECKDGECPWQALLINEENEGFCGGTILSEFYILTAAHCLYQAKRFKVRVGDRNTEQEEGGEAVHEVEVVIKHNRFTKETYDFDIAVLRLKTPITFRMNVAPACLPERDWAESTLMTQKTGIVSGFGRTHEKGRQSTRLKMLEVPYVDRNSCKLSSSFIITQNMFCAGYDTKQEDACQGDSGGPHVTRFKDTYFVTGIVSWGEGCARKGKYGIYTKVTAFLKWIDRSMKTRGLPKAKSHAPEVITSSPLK

Ki (Coagulation factor X [1])	Compound	other results
> 3000 nM	NS(=O)(=O)c1ccccc1-c1ccc(NC(=O)C2CC(c3cccc(O)c3)=NO2)cc1 (configuration not stated)	–
11000 nM	NS(=O)(=O)c1ccccc1-c1ccc(NC(=O)C2CC(c3ccccc3)=NO2)cc1 (configuration not stated)	–
1600 nM	NS(=O)(=O)c1ccccc1-c1ccc(NC(=O)C2CC(c3ccc(C(F)F)cc3)=NO2)cc1 (configuration not stated)	–
20000 nM	NS(=O)(=O)c1ccccc1-c1ccc(NC(=O)C2CC(c3ccc4ccccc4c3)=NO2)cc1 (configuration not stated)	–
700 nM	COc1ccc(C2=NOC(C(=O)Nc3ccc(-c4ccccc4S(N)(=O)=O)cc3)C2)cc1 (configuration not stated)	–
> 30000 nM	NS(=O)(=O)c1ccccc1-c1ccc(NC(=O)C2CC(c3cccc(Br)c3)=NO2)cc1 (configuration not stated)	–
2100 nM	Cc1ccc(C2=NOC(C(=O)Nc3ccc(-c4ccccc4S(N)(=O)=O)cc3)C2)cc1 (configuration not stated)	–
10000 nM	NS(=O)(=O)c1ccccc1-c1ccc(NC(=O)C2CC(c3cccc(I)c3)=NO2)cc1 (configuration not stated)	–
1100 nM	NS(=O)(=O)c1ccccc1-c1ccc(NC(=O)C2CC(c3ccc(-c4ccccc4)cc3)=NO2)cc1 (configuration not stated)	–
20000 nM	COc1cc(C2=NOC(C(=O)Nc3ccc(-c4ccccc4S(N)(=O)=O)cc3)C2)ccc1O (configuration not stated)	–
1700 nM	NS(=O)(=O)c1ccccc1-c1ccc(NC(=O)C2CC(c3ccccc3Cl)=NO2)cc1 (configuration not stated)	–
2500 nM	NS(=O)(=O)c1ccccc1-c1ccc(NC(=O)C2CC(c3ccc(Cl)c(F)c3)=NO2)cc1 (configuration not stated)	–
2700 nM	NS(=O)(=O)c1ccccc1-c1ccc(NC(=O)C2CC(c3ccc(Cl)c(Cl)c3)=NO2)cc1 (configuration not stated)	–
22000 nM	NS(=O)(=O)c1ccccc1-c1ccc(NC(=O)C2CC(c3ccc(O)cc3)=NO2)cc1 (configuration not stated)	–

Second part, the compound before the results:

Compound	Ki (Coagulation factor X [1])	other results
COc1cccc(C2=NOC(C(=O)Nc3ccc(-c4ccccc4S(N)(=O)=O)cc3)C2)c1 (configuration not stated)	–	Ki (Coagulation factor X [2]): 7.5 µM
NS(=O)(=O)c1ccccc1-c1ccc(NC(=O)C2CC(c3ccc4c(c3[N+](=O)[O-])OCO4)=NO2)cc1 (configuration not stated)	2400 nM	–
NS(=O)(=O)c1ccccc1-c1ccc(NC(=O)C2CC(/C=C/c3ccco3)=NO2)cc1 (configuration not stated)	2300 nM	–
NS(=O)(=O)c1ccccc1-c1ccc(NC(=O)C2CC(/C=C/c3ccccc3)=NO2)cc1 (configuration not stated)	2300 nM	–
NS(=O)(=O)c1ccccc1-c1ccc(NC(=O)C2CC(c3cccc(C(F)(F)F)c3)=NO2)cc1 (configuration not stated)	17000 nM	–
NS(=O)(=O)c1ccccc1-c1ccc(NC(=O)C2CC(c3ccc(F)c(F)c3)=NO2)cc1 (configuration not stated)	–	Ki (Coagulation factor X [2]): 4.6 µM
NS(=O)(=O)c1ccccc1-c1ccc(NC(=O)C2CC(c3cccc4ccccc34)=NO2)cc1 (configuration not stated)	> 30000 nM	–
NS(=O)(=O)c1ccccc1-c1ccc(NC(=O)C2C[C+](c3ccc(Cl)c([N+](=O)[O-])c3)[N-]O2)cc1 (configuration not stated)	> 30000 nM	–
NS(=O)(=O)c1ccccc1-c1ccc(NC(=O)C2CC(c3ccc(Cl)cc3Cl)=NO2)cc1 (configuration not stated)	1700 nM	–
CCCCCCOc1ccccc1C1=NOC(C(=O)Nc2ccc(-c3ccccc3S(N)(=O)=O)cc2)C1 (configuration not stated)	1800 nM	–
NS(=O)(=O)c1ccccc1-c1ccc(NC(=O)C2CC(c3ccc(I)cc3)=NO2)cc1 (configuration not stated)	–	Ki (Coagulation factor X [2]): 1.9 µM
NS(=O)(=O)c1ccccc1-c1ccc(NC(=O)C2CC(c3ccc(Br)cc3)=NO2)cc1 (configuration not stated)	–	Ki (Coagulation factor X [2]): 4.1 µM
NS(=O)(=O)c1ccccc1-c1ccc(NC(=O)C2CC(c3cccc(Cl)c3)=NO2)cc1 (configuration not stated)	–	Ki (Coagulation factor X [2]): 5.9 µM
CCCCCC1=NOC(C(=O)Nc2ccc(-c3ccccc3S(N)(=O)=O)cc2)C1 (configuration not stated)	–	Ki (Coagulation factor X [2]): 4.5 µM
NS(=O)(=O)c1ccccc1-c1ccc(NC(=O)C2CC(c3ccc4c(c3Cl)OCO4)=NO2)cc1 (configuration not stated)	1700 nM	–
NS(=O)(=O)c1ccccc1-c1ccc(NC(=O)C2CC(c3c(O)ccc4ccccc34)=NO2)cc1 (configuration not stated)	> 30000 nM	–
NS(=O)(=O)c1ccccc1-c1ccc(NC(=O)C2CC(c3cc(I)c(O)c(I)c3)=NO2)cc1 (configuration not stated)	> 30000 nM	–
CCCCCCCCCCC1=NOC(C(=O)Nc2ccc(-c3ccccc3S(N)(=O)=O)cc2)C1 (configuration not stated)	17000 nM	–
NS(=O)(=O)c1ccccc1-c1ccc(NC(=O)C2CC(c3cccc(C(=O)O)c3)=NO2)cc1 (configuration not stated)	> 30000 nM	–
CO[C@@H]1[C@H]2OC(C)(C)O[C@H]2O[C@H]1C1=NOC(C(=O)Nc2ccc(-c3ccccc3S(N)(=O)=O)cc2)C1 (some centres not stated)	> 30000 nM	–
NS(=O)(=O)c1ccccc1-c1ccc(NC(=O)C2CC(c3cccs3)=NO2)cc1 (configuration not stated)	1300 nM	–
NS(=O)(=O)c1ccccc1-c1ccc(NC(=O)C2CC(CCc3ccccc3)=NO2)cc1 (configuration not stated)	> 30000 nM	–
Nc1cc(C2=NOC(C(=O)Nc3ccc(-c4ccccc4S(N)(=O)=O)cc3)C2)ccc1Cl (configuration not stated)	–	Ki (Coagulation factor X [3]): 130 nM
NS(=O)(=O)c1ccccc1-c1ccc(NC(=O)C2CC(c3cccc(F)c3)=NO2)cc1 (configuration not stated)	–	Ki (Coagulation factor X [2]): 7.8 µM
COc1ccc2ccccc2c1C1=NOC(C(=O)Nc2ccc(-c3ccccc3S(N)(=O)=O)cc2)C1 (configuration not stated)	> 3000 nM	–
COc1ccc(Br)cc1C1=NOC(C(=O)Nc2ccc(-c3ccccc3S(N)(=O)=O)cc2)C1 (configuration not stated)	> 30000 nM	–
NS(=O)(=O)c1ccccc1-c1ccc(NC(=O)C2CC(c3ccc4c(c3)OCO4)=NO2)cc1 (configuration not stated)	490 nM	–
NS(=O)(=O)c1ccccc1-c1ccc(NC(=O)C2CC(c3ccc(Cl)cc3)=NO2)cc1 (configuration not stated)	–	Ki (Coagulation factor X [2]): 1 µM
